From PubChem BioAssay (NCI)
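Where inhibition never reached the appropriate level, the endpoint shown equals the highest concentration tested. Otherwise, values were interpolated linearly from a five-concentration, 48-hour dose response in 96-well plates. Definition used: TGI = concentration required for complete inhibition of growth.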

Tests used:
Test in all cases: growth of human tumour cells (NCI), 48 h
[1] = system: 786-0 renal
[2] = system: A498 renal
[3] = system: A549 NSCLC
[4] = system: ACHN renal
[5] = system: CAKI-1 renal
[6] = system: CCRF-CEM leukemia
[7] = system: COLO 205 colon
[8] = system: DU-145 prostate
[9] = system: EKVX NSCLC
[10] = system: HCC-2998 colon
[11] = system: HCT-116 colon
[12] = system: HCT-15 colon
[13] = system: HL-60(TB) leukemia
[14] = system: HOP-62 NSCLC
[15] = system: HOP-92 NSCLC
[16] = system: HS 578T breast
[17] = system: HT29 colon
[18] = system: IGROV1 ovarian
[19] = system: K-562 leukemia
[20] = system: KM12 colon
[21] = system: LOX IMVI melanoma
[22] = system: M14 melanoma
[23] = system: MALME-3M melanoma
[24] = system: MDA-MB-231 breast
[25] = system: MDA-MB-435
[26] = system: MDA-N
[27] = system: MOLT-4 leukemia
[28] = system: NCI-H226 lung
[29] = system: NCI-H23 lung
[30] = system: NCI-H460 lung
[31] = system: NCI-H522 lung
[32] = system: NCI/ADR-RES ovarian
[33] = system: OVCAR-3 ovarian
[34] = system: OVCAR-4 ovarian
[35] = system: OVCAR-5 ovarian
[36] = system: OVCAR-8 ovarian
[37] = system: PC-3 prostate
[38] = system: RPMI-8226 leukemia
[39] = system: RXF 393 renal
[40] = system: SF-268 CNS
[41] = system: SF-295 CNS
[42] = system: SF-539 CNS
[43] = system: SK-MEL-2 melanoma
[44] = system: SK-MEL-28 melanoma
[45] = system: SK-MEL-5 melanoma
[46] = system: SK-OV-3 ovarian
[47] = system: SN12C renal
[48] = system: SNB-19 CNS
[49] = system: SNB-75 CNS
[50] = system: SR leukemia
[51] = system: SW-620 colon
[52] = system: T-47D breast
[53] = system: TK-10 renal
[54] = system: U251 CNS
[55] = system: UACC-257 melanoma
[56] = system: UO-31 renal
[57] = system: MCF7 breast

For CCCCCCCCCc1cc(=O)c2c(O)cc(O)cc2o1, the TGI [1] was 42.8 µM, the TGI [2] was 35.2 µM and the TGI [3] was 35.5 µM. For the same compound, the TGI [4] was 34.5 µM, the TGI [5] was over 100 µM and the TGI [6] was 44.7 µM. For the same compound, the TGI [7] was 54.2 µM, the TGI [8] was 36.7 µM and the TGI [9] was 37.5 µM. For the same compound, the TGI [10] was 35.8 µM, the TGI [11] was 47.6 µM and the TGI [12] was 36 µM. The TGI [13] was 32.3 µM, the TGI [14] was 28.5 µM and the TGI [15] was 33.7 µM. It also gave a TGI [16] of 40.6 µM, a TGI [17] of 34.4 µM and a TGI [18] of 32.4 µM. For the same compound, the TGI [19] was 26 µM, the TGI [20] was 21.3 µM and the TGI [21] was 44.7 µM. It also gave a TGI [22] of 34.9 µM, a TGI [23] of 32 µM and a TGI [24] of over 100 µM. For the same compound, the TGI [25] was 41.1 µM, the TGI [26] was over 100 µM and the TGI [27] was 22.3 µM. For the same compound, the TGI [28] was 36 µM, the TGI [29] was 34.2 µM and the TGI [30] was 50.6 µM. The TGI [31] was 31.5 µM, the TGI [32] was 35.7 µM and the TGI [33] was 30.4 µM. For the same compound, the TGI [34] was 40.9 µM, the TGI [35] was 32 µM and the TGI [36] was 40.2 µM. It also gave a TGI [37] of 32.1 µM, a TGI [38] of 22.3 µM and a TGI [39] of 31.3 µM. The TGI [40] was 14.5 µM, the TGI [41] was 36 µM and the TGI [42] was 34.4 µM. For the same compound, the TGI [43] was 34.3 µM, the TGI [44] was 52.2 µM and the TGI [45] was 37.6 µM. For the same compound, the TGI [46] was 32.2 µM, the TGI [47] was 38.9 µM and the TGI [48] was 34.7 µM. For the same compound, the TGI [49] was 33.2 µM, the TGI [50] was 32.7 µM and the TGI [51] was 78.1 µM. It also gave a TGI [52] of 51.1 µM, a TGI [53] of 34.5 µM and a TGI [54] of 77.2 µM. It also gave a TGI [55] of 35.5 µM and a TGI [56] of 32.6 µM.
O=S(C(c1ccccc1)=P(c1ccccc1)(c1ccccc1)c1ccccc1)c1ccc(Cl)cc1 (stereo not drawn) gave a TGI [1] of over 100 µM, a TGI [2] of 37.1 µM and a TGI [4] of 60 µM. The TGI [5] was over 100 µM, the TGI [6] was over 100 µM and the TGI [8] was 42.7 µM. For the same compound, the TGI [9] was over 100 µM, the TGI [10] was over 100 µM and the TGI [11] was 79.5 µM. The TGI [12] was over 100 µM, the TGI [13] was 45 µM and the TGI [14] was 64.6 µM. It also gave a TGI [15] of 42.2 µM, a TGI [16] of 55.3 µM and a TGI [17] of over 100 µM. For the same compound, the TGI [18] was over 100 µM, the TGI [19] was over 100 µM and the TGI [20] was 57.2 µM. The TGI [21] was over 100 µM, the TGI [22] was over 100 µM and the TGI [57] was over 100 µM. It also gave a TGI [24] of 70 µM, a TGI [25] of 40.6 µM and a TGI [26] of 78.6 µM. The TGI [27] was over 100 µM, the TGI [28] was over 100 µM and the TGI [29] was over 100 µM. The TGI [30] was over 100 µM, the TGI [31] was 38.6 µM and the TGI [32] was over 100 µM. The TGI [33] was over 100 µM, the TGI [34] was 98.3 µM and the TGI [35] was over 100 µM. For the same compound, the TGI [36] was over 100 µM, the TGI [37] was 68.4 µM and the TGI [38] was over 100 µM. For the same compound, the TGI [39] was 95.1 µM, the TGI [40] was 87.9 µM and the TGI [41] was over 100 µM. The TGI [42] was over 100 µM, the TGI [43] was 45.9 µM and the TGI [44] was over 100 µM. For the same compound, the TGI [45] was 27 µM, the TGI [46] was 50.6 µM and the TGI [49] was over 100 µM. For the same compound, the TGI [50] was over 100 µM, the TGI [51] was over 100 µM and the TGI [52] was over 100 µM. It also gave a TGI [53] of over 100 µM, a TGI [54] of over 100 µM and a TGI [55] of over 100 µM. For the same compound, the TGI [56] was over 100 µM.
